Source: patent publication US10072026B2, “Crystalline form of 3-((1R,3s,5S)-3-((7-((5-methyl-1H-pyrazol-3-yl)amino)-1,6-naphthyridin-5-yl)amino)-8-azabicyclo[3.2.1]octan-8-yl)propanenitrile” (priority 2015, dated 2018)

How the values were obtained:
JAK3 = JAK3 (Homo sapiens (Human), UniProt P52333); assay: LanthaScreen JAK biochemical assay (JAK3)
JAK2 = JAK2 (Homo sapiens (Human), UniProt O60674); assay: LanthaScreen JAK biochemical assay (JAK2)
[1] = tested on: IL-4 induced STAT6 phosphorylation in THP-1 human monocytic cells; assay: Cellular JAK potency assay, THP-1
JAK1 = JAK1 (Homo sapiens (Human), UniProt P23458); assay: LanthaScreen JAK biochemical assay (JAK1)
Chain of JAK1 (P23458 whole entry): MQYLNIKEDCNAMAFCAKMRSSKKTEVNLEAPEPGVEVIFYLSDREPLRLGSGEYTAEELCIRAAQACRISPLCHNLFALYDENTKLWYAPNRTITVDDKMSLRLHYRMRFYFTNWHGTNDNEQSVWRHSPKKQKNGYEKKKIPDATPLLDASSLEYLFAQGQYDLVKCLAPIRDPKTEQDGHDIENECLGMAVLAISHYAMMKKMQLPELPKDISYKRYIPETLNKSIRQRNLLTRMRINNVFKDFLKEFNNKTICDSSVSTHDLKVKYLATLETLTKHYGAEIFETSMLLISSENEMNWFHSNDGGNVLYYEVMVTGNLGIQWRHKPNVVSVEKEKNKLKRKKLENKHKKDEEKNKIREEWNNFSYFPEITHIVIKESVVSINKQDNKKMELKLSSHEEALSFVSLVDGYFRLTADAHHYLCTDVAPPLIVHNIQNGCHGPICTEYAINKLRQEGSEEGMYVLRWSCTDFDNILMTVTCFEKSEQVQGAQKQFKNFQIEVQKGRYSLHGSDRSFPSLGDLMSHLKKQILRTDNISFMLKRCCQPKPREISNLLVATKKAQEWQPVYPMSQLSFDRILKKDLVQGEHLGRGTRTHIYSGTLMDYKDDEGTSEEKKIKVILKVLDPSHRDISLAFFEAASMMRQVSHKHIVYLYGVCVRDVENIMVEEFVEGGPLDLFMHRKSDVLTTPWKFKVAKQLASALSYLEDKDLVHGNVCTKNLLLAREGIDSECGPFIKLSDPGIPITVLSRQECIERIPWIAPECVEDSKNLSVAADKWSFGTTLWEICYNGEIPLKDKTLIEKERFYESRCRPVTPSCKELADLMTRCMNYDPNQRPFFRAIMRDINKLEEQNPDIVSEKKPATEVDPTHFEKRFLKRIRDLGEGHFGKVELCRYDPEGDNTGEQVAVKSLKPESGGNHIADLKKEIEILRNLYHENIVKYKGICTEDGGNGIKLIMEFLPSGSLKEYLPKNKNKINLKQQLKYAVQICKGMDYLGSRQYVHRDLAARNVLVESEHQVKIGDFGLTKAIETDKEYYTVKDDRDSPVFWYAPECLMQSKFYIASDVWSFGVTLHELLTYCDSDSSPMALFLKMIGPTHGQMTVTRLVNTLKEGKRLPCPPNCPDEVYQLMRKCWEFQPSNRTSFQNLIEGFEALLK

[2] = tested on: IL-13 induced STAT6 phosphorylation in BEAS-2B human lung epithelial cells; assay: AlphaScreen cellular JAK potency assay, BEAS-2B
[3] = IL-4 induced STAT6 phosphorylation, THP-1 cells
[4] = IL-13 induced STAT6 phosphorylation, BEAS-2B cells
[5] = THP-1 cells, IL-4 induced STAT6 phosphorylation
[6] = BEAS-2B cells, IL-13 induced STAT6 phosphorylation

Chain of JAK2 (O60674 whole entry): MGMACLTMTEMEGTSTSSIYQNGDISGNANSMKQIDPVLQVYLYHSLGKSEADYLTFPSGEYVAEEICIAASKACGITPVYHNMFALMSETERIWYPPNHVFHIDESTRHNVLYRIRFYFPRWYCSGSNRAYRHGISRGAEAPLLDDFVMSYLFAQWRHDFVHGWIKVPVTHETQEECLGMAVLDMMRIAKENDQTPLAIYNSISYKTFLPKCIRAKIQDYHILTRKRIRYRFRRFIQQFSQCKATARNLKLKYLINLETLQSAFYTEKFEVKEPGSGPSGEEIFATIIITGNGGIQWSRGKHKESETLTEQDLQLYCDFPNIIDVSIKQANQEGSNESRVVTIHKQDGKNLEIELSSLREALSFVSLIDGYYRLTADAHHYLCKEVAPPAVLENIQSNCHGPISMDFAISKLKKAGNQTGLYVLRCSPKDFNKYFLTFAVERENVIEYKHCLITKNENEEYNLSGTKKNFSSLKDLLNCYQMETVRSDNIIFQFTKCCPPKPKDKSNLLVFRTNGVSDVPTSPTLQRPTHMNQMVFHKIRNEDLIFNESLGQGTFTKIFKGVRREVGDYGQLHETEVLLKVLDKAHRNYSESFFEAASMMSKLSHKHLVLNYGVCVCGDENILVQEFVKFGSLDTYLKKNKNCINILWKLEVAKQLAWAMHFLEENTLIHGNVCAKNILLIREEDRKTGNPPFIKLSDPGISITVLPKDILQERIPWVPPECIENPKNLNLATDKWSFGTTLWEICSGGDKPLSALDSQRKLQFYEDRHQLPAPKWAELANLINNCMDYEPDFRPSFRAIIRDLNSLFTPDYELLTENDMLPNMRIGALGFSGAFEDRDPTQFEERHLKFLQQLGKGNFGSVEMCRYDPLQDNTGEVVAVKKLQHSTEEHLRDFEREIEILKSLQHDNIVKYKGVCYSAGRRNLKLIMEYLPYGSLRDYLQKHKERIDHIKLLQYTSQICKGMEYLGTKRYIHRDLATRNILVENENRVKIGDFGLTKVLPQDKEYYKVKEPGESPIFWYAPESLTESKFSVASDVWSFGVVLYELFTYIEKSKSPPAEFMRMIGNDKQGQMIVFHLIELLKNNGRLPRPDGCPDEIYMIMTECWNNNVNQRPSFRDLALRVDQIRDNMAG

`Cc1cc(Nc2cc3ncccc3c(N[C@@H]3C[C@H]4CC[C@@H](C3)N4CC(N)=O)n2)n[nH]1` [Example 1-6] was tested, and the “JAK 3 (pKi)” value (JAK3) was “C (C represents a pKi value between 7 and 9 (Ki between 100 nM and 1 nM))”, the “JAK 2 (pKi)” value (JAK2) was “B (B represents a pKi value between 9 and 10 (Ki between 1 nM and 0.1 nM))” and the “THP-1 IL4 pIC50” value [1, 3] was “C (C represents a pEC50 value<6.7 (EC50>200 nM))”. For the same compound, the “JAK 1 (pKi)” value (JAK1) was “B (B represents a pKi value between 9 and 10 (Ki between 1 nM and 0.1 nM))”.
With `COC(=O)CCN1[C@@H]2CCC[C@H]1C[C@H](Nc1nc(Nc3cc(C)[nH]n3)cc3ncccc13)C2` [Example 1-33] the “JAK 3 (pKi)” value (JAK3) was “C (C represents a pKi value between 7 and 9 (Ki between 100 nM and 1 nM))”, the “JAK 2 (pKi)” value (JAK2) was “B (B represents a pKi value between 9 and 10 (Ki between 1 nM and 0.1 nM))” and the “THP-1 IL4 pIC50” value [1, 3] was “C (C represents a pEC50 value<6.7 (EC50>200 nM))”. For the same compound, the “JAK 1 (pKi)” value (JAK1) was “B (B represents a pKi value between 9 and 10 (Ki between 1 nM and 0.1 nM))”.
`Cc1cc(Nc2cc3ncccc3c(N[C@@H]3C[C@H]4CCC[C@@H](C3)N4CC(=O)N[C@@H]3CCOC3=O)n2)n[nH]1` [Example 1-41] was tested, and the “JAK 3 (pKi)” value (JAK3) was “B (B represents a pKi value between 9 and 10 (Ki between 1 nM and 0.1 nM))”, the “JAK 2 (pKi)” value (JAK2) was “A (A represents a pKi value≥10 (Ki≤0.1 nM))” and the “THP-1 IL4 pIC50” value [1, 3] was “C (C represents a pEC50 value<6.7 (EC50>200 nM))”.
For `Cc1cc(Nc2cc3ncccc3c(N[C@@H]3C[C@H]4CCC[C@@H](C3)N4CC(=O)N[C@H]3CCOC3=O)n2)n[nH]1` [Example 1-42], the “JAK 3 (pKi)” value (JAK3) was “B (B represents a pKi value between 9 and 10 (Ki between 1 nM and 0.1 nM))”, the “JAK 2 (pKi)” value (JAK2) was “A (A represents a pKi value≥10 (Ki≤0.1 nM))” and the “THP-1 IL4 pIC50” value [1, 3] was “C (C represents a pEC50 value<6.7 (EC50>200 nM))”.
In the case of `Cc1cc(Nc2cc3ncccc3c(N[C@@H]3C[C@H]4CCC[C@@H](C3)N4Cc3ccc(O)cc3)n2)n[nH]1` [Example 1-50], the “JAK 3 (pKi)” value (JAK3) was “C (C represents a pKi value between 7 and 9 (Ki between 100 nM and 1 nM))”, the “JAK 2 (pKi)” value (JAK2) was “A (A represents a pKi value≥10 (Ki≤0.1 nM))” and the “THP-1 IL4 pIC50” value [1, 3] was “B (B represents a pEC50 value between 6.7 and 7.5 (EC50 between 200 nM and 32 nM))”. The “JAK 1 (pKi)” value (JAK1) was “A (A represents a pKi value≥10 (Ki≤0.1 nM))”.
With `Cc1cc(Nc2cc3ncccc3c(N[C@@H]3C[C@H]4CC[C@@H](C3)N4C(=O)C(C)F)n2)n[nH]1` (stereo partly drawn) [Example 2-3] the “JAK 3 (pKi)” value (JAK3) was “C (C represents a pKi value between 7 and 9 (Ki between 100 nM and 1 nM))”, the “JAK 2 (pKi)” value (JAK2) was “B (B represents a pKi value between 9 and 10 (Ki between 1 nM and 0.1 nM))” and the “THP-1 IL4 pIC50” value [1, 3] was “B (B represents a pEC50 value between 6.7 and 7.5 (EC50 between 200 nM and 32 nM))”. The “BEAS2B pIC50” value [2, 4] was “A (A represents a pEC50 value≥7.5 (EC50≤32 nM))” and the “JAK 1 (pKi)” value (JAK1) was “B (B represents a pKi value between 9 and 10 (Ki between 1 nM and 0.1 nM))”.
`Cc1cc(Nc2cc3ncccc3c(N[C@@H]3C[C@H]4CC[C@@H](C3)N4C(=O)CN(C)C)n2)n[nH]1` [Example 2-5] was tested, and the “JAK 3 (pKi)” value (JAK3) was “C (C represents a pKi value between 7 and 9 (Ki between 100 nM and 1 nM))”, the “THP-1 IL4 pIC50” value [1, 3] was “C (C represents a pEC50 value<6.7 (EC50>200 nM))” and the “JAK 1 (pKi)” value (JAK1) was “B (B represents a pKi value between 9 and 10 (Ki between 1 nM and 0.1 nM))”.
`Cc1cc(Nc2cc3ncccc3c(N[C@@H]3C[C@H]4CCC[C@@H](C3)N4S(=O)(=O)C3CNC3)n2)n[nH]1` [Example 4-21] was tested, and the “JAK 3 (pKi)” value (JAK3) was “C (C represents a pKi value between 7 and 9 (Ki between 100 nM and 1 nM))”, the “JAK 2 (pKi)” value (JAK2) was “B (B represents a pKi value between 9 and 10 (Ki between 1 nM and 0.1 nM))” and the “THP-1 IL4 pIC50” value [1, 3] was “C (C represents a pEC50 value<6.7 (EC50>200 nM))”.
In the case of `COc1ccc2c(N[C@@H]3C[C@H]4CC[C@@H](C3)N4CCF)nc(Nc3cc(C)[nH]n3)cc2n1` [Example 5-3], the “JAK 3 (pKi)” value (JAK3) was “C (C represents a pKi value between 7 and 9 (Ki between 100 nM and 1 nM))”, the “THP-1 IL4 pIC50” value [1, 3] was “B (B represents a pEC50 value between 6.7 and 7.5 (EC50 between 200 nM and 32 nM))” and the “JAK 1 (pKi)” value (JAK1) was “B (B represents a pKi value between 9 and 10 (Ki between 1 nM and 0.1 nM))”.
`C=CCOC(=O)N1[C@@H]2CC[C@H]1C[C@H](Nc1nc(Nc3cc(C)[nH]n3)cc3nc(OC)ccc13)C2` [Example 5-7] was tested, and the “JAK 3 (pKi)” value (JAK3) was “C (C represents a pKi value between 7 and 9 (Ki between 100 nM and 1 nM))”, the “THP-1 IL4 pIC50” value [1, 3] was “B (B represents a pEC50 value between 6.7 and 7.5 (EC50 between 200 nM and 32 nM))” and the “BEAS2B pIC50” value [2, 4] was “A (A represents a pEC50 value≥7.5 (EC50≤32 nM))”. For the same compound, the “JAK 1 (pKi)” value (JAK1) was “B (B represents a pKi value between 9 and 10 (Ki between 1 nM and 0.1 nM))”.
For `CCS(=O)(=O)N1[C@@H]2CCC[C@H]1C[C@H](Nc1nc(Nc3cc(C)[nH]n3)cc3nc(CN4CCOCC4)ccc13)C2` [Example 5-23], the “JAK 3 (pKi)” value (JAK3) was “B (B represents a pKi value between 9 and 10 (Ki between 1 nM and 0.1 nM))”, the “JAK 2 (pKi)” value (JAK2) was “A (A represents a pKi value≥10 (Ki≤0.1 nM))” and the “THP-1 IL4 pIC50” value [1, 3] was “A (A represents a pEC50 value≥7.5 (EC50≤32 nM))”. The “JAK 1 (pKi)” value (JAK1) was “A (A represents a pKi value≥10 (Ki≤0.1 nM))”.
With `Cc1cnc2cc(Nc3cc(C)[nH]n3)nc(N[C@@H]3C[C@H]4CCC[C@@H](C3)N4CCC#N)c2c1` [Example 6-6] the “JAK 3 (pKi)” value (JAK3) was “B (B represents a pKi value between 9 and 10 (Ki between 1 nM and 0.1 nM))”, the “JAK 2 (pKi)” value (JAK2) was “A (A represents a pKi value≥10 (Ki≤0.1 nM))” and the “THP-1 IL4 pIC50” value [1, 5] was “A (A represents a pEC50 value≥7.5 (EC50≤32 nM))”. The “BEAS2B pIC50” value [2, 6] was “A (A represents a pEC50 value≥7.5 (EC50≤32 nM))”.
`COc1cnc2cc(Nc3cc(C)[nH]n3)nc(N[C@@H]3C[C@H]4CC[C@@H](C3)N4CCF)c2c1` [Example 6-13] was tested, and the “JAK 3 (pKi)” value (JAK3) was “C (C represents a pKi value between 7 and 9 (Ki between 100 nM and 1 nM))”, the “THP-1 IL4 pIC50” value [1, 5] was “B (B represents a pEC50 value between 6.7 and 7.5 (EC50 between 200 nM and 32 nM))” and the “JAK 1 (pKi)” value (JAK1) was “B (B represents a pKi value between 9 and 10 (Ki between 1 nM and 0.1 nM))”.
With `C=CCOC(=O)N1[C@@H]2CC[C@H]1C[C@H](Nc1nc(Nc3cc(C)[nH]n3)cc3ncc(OC)cc13)C2` [Example 6-19] the “JAK 3 (pKi)” value (JAK3) was “C (C represents a pKi value between 7 and 9 (Ki between 100 nM and 1 nM))”, the “THP-1 IL4 pIC50” value [1, 5] was “B (B represents a pEC50 value between 6.7 and 7.5 (EC50 between 200 nM and 32 nM))” and the “JAK 1 (pKi)” value (JAK1) was “B (B represents a pKi value between 9 and 10 (Ki between 1 nM and 0.1 nM))”.
With `COc1cnc2cc(Nc3cc(C)[nH]n3)nc(N[C@@H]3C[C@H]4CC[C@@H](C3)N4C(=O)OCC(C)C)c2c1` [Example 6-25] the “JAK 3 (pKi)” value (JAK3) was “C (C represents a pKi value between 7 and 9 (Ki between 100 nM and 1 nM))”, the “THP-1 IL4 pIC50” value [1, 5] was “B (B represents a pEC50 value between 6.7 and 7.5 (EC50 between 200 nM and 32 nM))” and the “BEAS2B pIC50” value [2, 6] was “A (A represents a pEC50 value≥7.5 (EC50≤32 nM))”.
For `CNC(=O)CN1[C@@H]2CC[C@H]1C[C@H](Nc1nc(Nc3cc(C)[nH]n3)cc3ncc(C(=O)OC)cc13)C2` [Example 6-42], the “JAK 3 (pKi)” value (JAK3) was “C (C represents a pKi value between 7 and 9 (Ki between 100 nM and 1 nM))”, the “JAK 2 (pKi)” value (JAK2) was “B (B represents a pKi value between 9 and 10 (Ki between 1 nM and 0.1 nM))” and the “THP-1 IL4 pIC50” value [1, 5] was “C (C represents a pEC50 value<6.7 (EC50>200 nM))”. For the same compound, the “JAK 1 (pKi)” value (JAK1) was “B (B represents a pKi value between 9 and 10 (Ki between 1 nM and 0.1 nM))”.
With `Cc1cc(Nc2cc3ncc(S(C)(=O)=O)cc3c(N[C@@H]3C[C@H]4CC[C@@H](C3)N4C(=O)CC#N)n2)n[nH]1` [Example 6-51] the “JAK 3 (pKi)” value (JAK3) was “C (C represents a pKi value between 7 and 9 (Ki between 100 nM and 1 nM))”, the “JAK 2 (pKi)” value (JAK2) was “B (B represents a pKi value between 9 and 10 (Ki between 1 nM and 0.1 nM))” and the “THP-1 IL4 pIC50” value [1, 5] was “C (C represents a pEC50 value<6.7 (EC50>200 nM))”. For the same compound, the “JAK 1 (pKi)” value (JAK1) was “B (B represents a pKi value between 9 and 10 (Ki between 1 nM and 0.1 nM))”.
With `Cc1cc(Nc2nc(N[C@@H]3C[C@H]4CC[C@@H](C3)N4CCC#N)c3cccnc3c2F)n[nH]1` [Example 8-1] the “JAK 3 (pKi)” value (JAK3) was “C (C represents a pKi value between 7 and 9 (Ki between 100 nM and 1 nM))”, the “JAK 2 (pKi)” value (JAK2) was “B (B represents a pKi value between 9 and 10 (Ki between 1 nM and 0.1 nM))” and the “THP-1 IL4 pIC50” value [1, 5] was “B (B represents a pEC50 value between 6.7 and 7.5 (EC50 between 200 nM and 32 nM))”. The “JAK 1 (pKi)” value (JAK1) was “B (B represents a pKi value between 9 and 10 (Ki between 1 nM and 0.1 nM))”.
In the case of `Cc1cc(Nc2nc(N[C@@H]3C[C@H]4CCC[C@@H](C3)N4CCC#N)c3cccnc3c2F)n[nH]1` [Example 8-9], the “JAK 3 (pKi)” value (JAK3) was “C (C represents a pKi value between 7 and 9 (Ki between 100 nM and 1 nM))”, the “JAK 2 (pKi)” value (JAK2) was “B (B represents a pKi value between 9 and 10 (Ki between 1 nM and 0.1 nM))” and the “THP-1 IL4 pIC50” value [1, 5] was “B (B represents a pEC50 value between 6.7 and 7.5 (EC50 between 200 nM and 32 nM))”. For the same compound, the “JAK 1 (pKi)” value (JAK1) was “B (B represents a pKi value between 9 and 10 (Ki between 1 nM and 0.1 nM))”.
